According to patent EP0645399A2, “Ribosome inactivating proteins (RIB), their method of production and medical preparation containing RIP” (priority 1993, dated 1995):

Target: T1, HIV-1 Reverse Transkriptase (Human immunodeficiency virus type 1 group M subtype B, UniProt P03366)
T1 construct: Rekombinante HIV-1 Reverse Transkriptase (66 kDa); made in house; host or cells: Escherichia coli
Test: HIV-1 RT test (3H-TTP incorporation, recombinant enzyme)
Assay type: biochemical
Conditions: positive control; read-out: IC₅₀ (HIV-1 RT)
From the text: Zur Untersuchung der biologischen Aktivität wird das aufgereinigte Protein (P 1) in einem Ribosomen-Hemmtest und einem HIV-1 RT Test eingesetzt. Im Ribosomen-Hemmtest wird die Inaktivierung von Ribosomen in einem Retikulozyten-Lysat durch das erfindungsgemäße Protein gemessen (vgl. Krawetz et al., 1983). Im HIV-1 RT Test wird die Hemmung der HIV-1 Reverse Transkriptase (HIV-1 RT) durch das erfindungsgemäße Protein P 1 bestimmt (vgl. Tan et al., 1991).
Enzym: Rekombinante HIV-1 Reverse Transkriptase (66 kDa), exprimiert in Escherichia coli (vgl. Tan et al., 1991 und darin zitierte Literatur). Die Aktivität des Enzyms in RT-Testsystemen ist von viralem Enzym nicht zu unterscheiden. Protein-Konzentration: 0,11 mg/ml; Aktivität: Einbau von 238 nM TTP/mg Protein in 10 min bei 37°C. Testansatz: 50 mM Tris-HCl, pH 8,0, 150 mM KCl, 5 mM MgCl₂, 0,5 mM EGTA, 5 mM Dithiothreitol, 0,3 mM Glutathion, 2,5 µg/ml BSA, 41 µM poly(A) (Σ₂₆₀(mM) = 7,8), 9,5 µM oligo(dT)₁₂₋₁₈ (Σ₂₆₅(mM) = 5,6), 0,05% Triton X-100, 20 µm TTP und 0,5 µCi (³H)-TTP (Endvolumen 100 µl). Probenlösung: 10 µl, in H₂O oder 25 mM Tris-HCl, pH 8,4. HIV-1 RT: 10 µl (0,11 µg in Testpuffer)
Die Polymerisationsreaktion wird durch den Zusatz der HIV-1 RT-Lösung zum Testansatz gestartet. Nach einer Inkubationszeit von 1 Stunde (37°C) wird die Reaktion durch Zugabe von 25 µl einer 0,1 M EGTA-Lösung gestoppt und die Ansätze auf Eis gekühlt. […]

Work on `COc1cc2c(ccc3c4cc(OC)c(OC)cc4c[n+](C)c23)cc1O` [Fagaronin-Chlorid] yielded an IC50 of 13 µM.
